Reference: patent US8030478B2, “Method for nucleic acid replication and novel artificial base pairs” (priority 2005, dated 2011)
Like-named read-outs stand apart in the source and are kept apart here. Marks after values point to notes of the source that are not given here.

Target: T7 RNA polymerase (Escherichia phage T7, UniProt P00573)
Details: [α-32P]ATP, natural NTP 1 mM; for Composition of nucleotide incorporated as 5′ neighbor of A: Gp: theoretical [2]
[1] = Entry 1, template temp35Ds-3, Pa 1 mM, theoretical [0]
[2] = Entry 1, template temp35Ds-3, Pa 1 mM, theoretical [1]
[3] = Entry 2, template temp35Ds-3, Pa 3 mM, theoretical [0]
[4] = Entry 2, template temp35Ds-3, Pa 3 mM, theoretical [1]
[5] = Entry 3, template temp35A-3, Pa 1 mM, theoretical [0]
[6] = Entry 3, template temp35A-3, Pa 1 mM, theoretical [1]
[7] = Entry 4, template temp35A-3, Pa 3 mM, theoretical [0]
[8] = Entry 4, template temp35A-3, Pa 3 mM, theoretical [1]
[9] = Entry 5, template temp35G-3, Pa 1 mM, theoretical [0]
[10] = Entry 5, template temp35G-3, Pa 1 mM, theoretical [1]
[11] = Entry 6, template temp35G-3, Pa 3 mM, theoretical [0]
[12] = Entry 6, template temp35G-3, Pa 3 mM, theoretical [1]

T7 RNA polymerase, sequence (P00573 whole entry): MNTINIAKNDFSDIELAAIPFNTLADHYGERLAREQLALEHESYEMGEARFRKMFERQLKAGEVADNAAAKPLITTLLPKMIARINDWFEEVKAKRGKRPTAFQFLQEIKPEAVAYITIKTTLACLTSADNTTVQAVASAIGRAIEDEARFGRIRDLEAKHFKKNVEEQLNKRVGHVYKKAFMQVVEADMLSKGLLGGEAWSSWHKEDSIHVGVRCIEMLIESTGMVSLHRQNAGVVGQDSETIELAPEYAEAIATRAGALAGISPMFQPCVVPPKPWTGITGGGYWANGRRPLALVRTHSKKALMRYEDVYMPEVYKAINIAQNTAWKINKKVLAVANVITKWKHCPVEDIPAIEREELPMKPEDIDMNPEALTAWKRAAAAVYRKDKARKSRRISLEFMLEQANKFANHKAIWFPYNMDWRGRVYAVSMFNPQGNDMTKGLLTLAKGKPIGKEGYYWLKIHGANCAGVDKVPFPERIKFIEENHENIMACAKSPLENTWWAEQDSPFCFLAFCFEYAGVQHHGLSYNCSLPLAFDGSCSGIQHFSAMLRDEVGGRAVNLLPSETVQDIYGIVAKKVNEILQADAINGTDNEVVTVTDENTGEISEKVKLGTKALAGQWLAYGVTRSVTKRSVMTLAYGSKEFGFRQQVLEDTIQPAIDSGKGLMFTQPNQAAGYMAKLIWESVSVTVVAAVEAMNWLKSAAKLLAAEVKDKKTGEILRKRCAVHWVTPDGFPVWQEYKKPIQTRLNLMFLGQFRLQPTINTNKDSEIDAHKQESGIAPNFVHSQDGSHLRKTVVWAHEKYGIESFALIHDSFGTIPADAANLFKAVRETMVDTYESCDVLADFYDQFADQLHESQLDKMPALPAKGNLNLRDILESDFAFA

## O=Cc1cccn1[C@@H]1O[C@H](COP(=O)(O)OP(=O)(O)OP(=O)(O)O)[C@@H](O)[C@H]1O [PaTP, 1-(β-D-Ribofuranosyl)pyrrole-2-carbaldehyde 5′-triphosphate]
[1]
  Composition of nucleotide incorporated as 5′ neighbor of A: Cp: 0.01 [0]
  Composition of nucleotide incorporated as 5′ neighbor of A: Up: 0.02 [0]
[2]
  Composition of nucleotide incorporated as 5′ neighbor of A: Ap: 1.03^c [1]^d
  Composition of nucleotide incorporated as 5′ neighbor of A: Np (Pap): 0.97 [1]
Entry 1, template temp35Ds-3, Pa 1 mM
  Composition of nucleotide incorporated as 5′ neighbor of A: Gp: 1.97 [2]
[3]
  Composition of nucleotide incorporated as 5′ neighbor of A: Cp: 0.01 [0]
  Composition of nucleotide incorporated as 5′ neighbor of A: Up: 0.01 [0]
[4]
  Composition of nucleotide incorporated as 5′ neighbor of A: Ap: 1.01 [1]
  Composition of nucleotide incorporated as 5′ neighbor of A: Np (Pap): 1.00 [1]
Entry 2, template temp35Ds-3, Pa 3 mM
  Composition of nucleotide incorporated as 5′ neighbor of A: Gp: 1.96 [2]
[5]
  Composition of nucleotide incorporated as 5′ neighbor of A: Cp: n.d.^f [0]
  Composition of nucleotide incorporated as 5′ neighbor of A: Np (Pap): n.d. [0]
[6]
  Composition of nucleotide incorporated as 5′ neighbor of A: Ap: 0.99 [1]
  Composition of nucleotide incorporated as 5′ neighbor of A: Up: 1.04 [1]
Entry 3, template temp35A-3, Pa 1 mM
  Composition of nucleotide incorporated as 5′ neighbor of A: Gp: 1.96 [2]
[7]
  Composition of nucleotide incorporated as 5′ neighbor of A: Cp: n.d. [0]
  Composition of nucleotide incorporated as 5′ neighbor of A: Np (Pap): n.d. [0]
[8]
  Composition of nucleotide incorporated as 5′ neighbor of A: Ap: 0.99 [1]
  Composition of nucleotide incorporated as 5′ neighbor of A: Up: 1.03 [1]
Entry 4, template temp35A-3, Pa 3 mM
  Composition of nucleotide incorporated as 5′ neighbor of A: Gp: 1.97 [2]
[9]
  Composition of nucleotide incorporated as 5′ neighbor of A: Np (Pap): n.d. [0]
  Composition of nucleotide incorporated as 5′ neighbor of A: Up: 0.01 [0]
[10]
  Composition of nucleotide incorporated as 5′ neighbor of A: Ap: 1.02 [1]
  Composition of nucleotide incorporated as 5′ neighbor of A: Cp: 1.01 [1]
Entry 5, template temp35G-3, Pa 1 mM
  Composition of nucleotide incorporated as 5′ neighbor of A: Gp: 1.96 [2]
[11]
  Composition of nucleotide incorporated as 5′ neighbor of A: Np (Pap): n.d. [0]
  Composition of nucleotide incorporated as 5′ neighbor of A: Up: 0.01 [0]
[12]
  Composition of nucleotide incorporated as 5′ neighbor of A: Ap: 1.01 [1]
  Composition of nucleotide incorporated as 5′ neighbor of A: Cp: 1.00 [1]
Entry 6, template temp35G-3, Pa 3 mM
  Composition of nucleotide incorporated as 5′ neighbor of A: Gp: 1.98 [2]
